# Source: a melting point compilation (Tetko et al.; mined from patent text by program, amines drawn as free bases though some values may be those of a salt)
# Residues, ends and D or L forms follow the SMILES beside them. *: point of attachment. Tos = Cc1ccc(S(=O)(=O)*)cc1; Cam = NC(=O)C*
row,Compound,melting point
1,CCSc1cc(C)nc(SCC)c1NC(=O)CCCCCCCSc1nc2cccc(C(F)(F)F)c2o1,99 to 100 °C
2,COc1cc(C=CC(=O)Nc2cnc3ccc(C)cc3c2-c2ccccc2Br)cc(OC)c1OC(C)=O,238 to 240 °C
3,CC(OCc1cc2cc(C(F)(F)F)ccc2n1S(=O)(=O)c1ccc2c(c1)OCCO2)C(=O)O (stereo not drawn),70 °C
4,Cc1c(C(F)(F)F)nn(-c2c(Cl)cc(C(F)(F)F)cc2Cl)c1N,97 to 100 °C
5,CN[C@@H]1COc2cc(Cl)cc(-c3ccc(Cl)cc3C)c2O1,110 °C
6,CC(C)Sc1cc2c(cc1Cl)N=CNS2(=O)=O,231 to 232 °C
7,CCCCCCc1cc2c(s1)NC(=O)CN=C2c1ccccc1Cl,141 to 143 °C
8,CC(C)(COc1ccc(O)c(C(N)=O)c1)NCC(O)COc1ccccc1C#N (stereo not drawn),125 to 126 °C
9,Cc1cc(=O)c2ccccc2o1,71 °C
10,CN1CCC(C#N)(c2ccc(Cl)cc2F)CC1,85 to 87 °C
11,CONC(=O)NC1CCCc2ccccc21 (stereo not drawn),122 to 125 °C
12,O=C(O)CCCCCCCCCNS(=O)(=O)c1ccc(Cl)cc1,192 to 194 °C
13,O=c1c(-c2ccccc2Cl)coc2cc(OCc3nnn[nH]3)cc(Cl)c12,192 to 195 °C
14,CCCCCCc1c(C(C)C)nc(C(C)C)c(CO)c1-c1ccccc1,71 to 72 °C
15,CCCOc1cccc(C(NC2CCN(C)CC2)c2nc3ccccc3s2)c1 (stereo not drawn),90 °C
16,Cn1nc(CO)nc1NCCCOc1cccc(CN2CCCCC2)c1,118 to 119 °C
17,Nc1cccc(-c2ccc(-c3ccc(CCN4CC5C(N)C5C4)cc3)cc2)n1 (stereo not drawn),205 °C
18,CCCN(CC1CC1)c1nc(C)nc2c1c(C)c(C)n2-c1c(C)cc(C)c2nsnc12,136 °C
19,Cc1ccc(S(=O)(=O)N2CCC[C@H]2C(=O)N[C@@H](Cc2ccc(OCC(N)=O)cc2)C(=O)O)cc1 (Tos-Pro-Tyr(Cam)-OH),195 to 196 °C
20,CSC(Nc1cccc(CNC(=O)OC(C)(C)C)c1)=C(C#N)C#N,150 to 151 °C
21,O=C(O)CCCC(=O)c1cn(-c2cccnc2)c2ccccc12,177 to 178 °C
22,COc1ccccc1C=CCN1CCc2nc(N)sc2CC1,80 to 84 °C
23,COC(=O)c1cc2cc(NC(C)=O)ccc2o1,158 to 159 °C
24,CCOC(=O)C(=O)c1cc(OC)c(O)c([N+](=O)[O-])c1,165 to 167 °C
25,CC1Cc2c(O)cc(C(=O)O)cc2O1 (stereo not drawn),181 to 184 °C
26,CCn1c(=O)c2[nH]c(/C=C/c3cc(OC)c(OC)cc3Br)nc2n(CC)c1=O,> 285 °C
27,CCCCCCCCOCC(CO)(CO)COCCCCCCCC,30 to 32 °C

row,Compound,melting point
1,CCC(=NO)c1ccc(OCCOC)cc1,74 to 80 °C
2,Cc1cc(NCCNc2cc(C)[nH]n2)n[nH]1,255 to 257 °C
3,O=C(O)CNC(=O)CCCc1ccccc1,99 to 101 °C
4,N#CNC(=N)CCc1ccccc1Sc1ccccc1CCC(=N)NC#N,188 to 190 °C
5,Nc1ccn([C@H]2C=C[C@@H](O)C2)c(=O)n1 (racemic),241 to 242 °C
6,CN(Cc1ccc(NC(=O)C2=Cc3cc(-c4cccnc4)ccc3OCC2)cc1)C1CCOCC1,158 to 159 °C
7,O=C(OCC1CC1)c1ncn2c1[C@@H]1CCCN1C(=O)c1ccccc1-2,189 to 190 °C
8,N=C(Nc1ccc([N+](=O)[O-])cc1)c1ccccc1,240 to 241 °C
9,CC(=O)Nc1ccc(OC(C)=O)c(C(=O)O)c1,196 to 198 °C
10,N#Cc1ccc(N2CCC(F)(F)C2)c2ccsc12,169 to 170 °C
11,O=C1c2ccc([N+](=O)[O-])cc2C(=O)N1CCSc1ccccc1,120 to 121 °C
12,CCN(C)c1cc(C)nc(Oc2c(C)cc(C)cc2C)c1C,173 to 174 °C
13,CC(=O)Nc1cc(N)ccc1OCCCN,102 to 106 °C
14,CN(C)c1cc2c(cc1C(F)(F)F)NC(=O)CC(c1ccnc(C#N)c1)=N2,248 °C
15,CCCCCCC(=N)NC(=S)Nc1ccc(Br)cc1Br,86 to 88 °C
16,COc1cc(OCc2ccccn2)ccc1/C=C/c1cc(/C=C/c2cc3ccccc3[nH]2)n[nH]1,151 to 152 °C
17,CCO[C@@H](Cc1ccc(OCCc2nc(-c3ccc(C(F)(F)F)cc3)oc2C)c2ccccc12)C(=O)O,153 to 155 °C
18,Cc1oc(-c2ccccc2)nc1COc1ccc(Sc2nc(-c3ccccc3)c(CCC(=O)O)o2)cc1,136 to 137 °C
19,CCCCOc1ccc2c(=O)n(Cc3ccccc3)[nH]c2c1,148 to 149 °C
20,CCCCCCCNC(=O)Nc1ccc(N(C)C)cc1C(=O)NCC1CCN(C(c2ccc(OC)cc2)c2ccc(OC)cc2)CC1,163 °C
21,CCO/N=C1\CCc2ccccc2C1=Cc1ccc(S(C)(=O)=O)cc1,151 to 152 °C
22,O=c1c2cccc(O)c2nc(-c2ccc(OCCCl)cc2)n1-c1ccc(O)cc1,188 to 190 °C
23,CCCCCCCCCCC(=O)Nc1cc(F)cc2c1OCCC21SC(=O)NC1=O (stereo not drawn),69 to 71 °C
24,COc1c(C#Cc2ccccc2)c(=O)c2ccc(Cl)cc2[nH]c1=O,204 to 205 °C
25,Cc1oc(-c2ccccc2)nc1CCc1ccc(CCCC2OC(=O)NC2=O)cc1 (stereo not drawn),112 to 113 °C
26,NC(=S)C1CCCc2cc3c(nc21)CCC3 (stereo not drawn),118 °C
